# Measurements published in US9409880B2, “Modulators of TLR3/dsRNA complex and uses thereof” (The Regents of the University of Colorado, a body corporate, priority 2011, dated 2016).
# Columns and labels:
# Cyp3A4 = target: T1, Cyp3A4 (Homo sapiens, UniProt P08684); experiment: Cytochrome P450 toxicity assay; type: in vitro ADME; details: 25 μM and 50 μM; compared to known inhibitor ketoconazole
# T1 construct: tissue Apredica (testing lab); host or cells: microsomes (subcellular fractions)
# Method: (§1) Test agent was incubated (two wells per condition) with microsomes at 37° C. Control incubations containing vehicle or reference inhibitors were run along side the test agents. The final assay contained test agent, probe substrates at the indicated concentration, 2 mM NADPH, 3 mM MgCl2 in 50 mM potassium phosphate buffer, pH 7.4. The final microsomal concentration was 0.5 mg/mL. The maximum solvent concentration in the final assay was ≦0.5% to minimize the inhibition of Cyps by solvent. NADPH was added last to start the assay. At the end of ten minutes incubation, the assay was stopped by the addition of acetonitrile containing internal standard, the samples were centrifuged, and the amount of probe metabolite in the supernatant was determined by LC/MS/MS. (Testing was done by Apredica, Watertown, Mass. using subcellular fractions)
# Cyp2D6 = target: T2, Cyp2D6 (Homo sapiens, UniProt P10635); experiment: Cytochrome P450 toxicity assay; type: in vitro ADME; details: 25 μM and 50 μM; compared to known inhibitor quinidine
# T2 construct: tissue Apredica (testing lab); host or cells: microsomes (subcellular fractions)
# T2 sequence (P10635 whole entry): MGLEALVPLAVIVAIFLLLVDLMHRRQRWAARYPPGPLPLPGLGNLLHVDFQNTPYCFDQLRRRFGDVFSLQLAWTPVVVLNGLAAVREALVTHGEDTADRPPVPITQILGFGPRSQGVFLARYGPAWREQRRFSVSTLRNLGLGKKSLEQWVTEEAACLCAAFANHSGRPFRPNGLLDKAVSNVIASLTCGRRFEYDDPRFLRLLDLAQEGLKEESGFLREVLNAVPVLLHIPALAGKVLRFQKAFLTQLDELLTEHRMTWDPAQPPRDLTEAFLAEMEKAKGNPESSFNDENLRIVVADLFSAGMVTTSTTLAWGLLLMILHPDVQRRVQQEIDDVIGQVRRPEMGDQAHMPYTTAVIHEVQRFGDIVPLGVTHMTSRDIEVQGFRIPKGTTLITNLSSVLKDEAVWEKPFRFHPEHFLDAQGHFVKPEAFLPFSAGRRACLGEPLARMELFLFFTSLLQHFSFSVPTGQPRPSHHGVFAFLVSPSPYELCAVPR
# Method: as §1
# Cyp1A2 = target: T3, Cyp1A2 (Homo sapiens, UniProt P05177); experiment: Cytochrome P450 toxicity assay; type: in vitro ADME; details: 25 μM and 50 μM; compared to known inhibitor aNF
# T3 construct: tissue Apredica (testing lab); host or cells: microsomes (subcellular fractions)
# T3 sequence (P05177 1-516): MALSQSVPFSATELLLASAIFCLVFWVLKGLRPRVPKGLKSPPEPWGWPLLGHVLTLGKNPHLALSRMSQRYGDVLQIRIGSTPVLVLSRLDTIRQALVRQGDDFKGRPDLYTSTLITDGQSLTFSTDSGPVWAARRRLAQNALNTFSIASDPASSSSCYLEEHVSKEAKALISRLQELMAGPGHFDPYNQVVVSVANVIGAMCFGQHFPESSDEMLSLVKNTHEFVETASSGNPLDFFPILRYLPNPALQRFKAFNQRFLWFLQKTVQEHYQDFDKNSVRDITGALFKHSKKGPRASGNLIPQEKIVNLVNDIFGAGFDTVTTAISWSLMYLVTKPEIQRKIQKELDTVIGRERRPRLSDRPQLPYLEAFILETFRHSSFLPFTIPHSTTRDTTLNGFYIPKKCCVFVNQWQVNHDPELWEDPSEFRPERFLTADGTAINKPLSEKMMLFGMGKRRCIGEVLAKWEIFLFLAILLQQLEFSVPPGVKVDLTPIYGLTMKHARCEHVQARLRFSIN
# Method: as §1
# Cyp2C19 = target: T4, Cyp2C19 (Homo sapiens, UniProt P33261); experiment: Cytochrome P450 toxicity assay; type: in vitro ADME; details: 25 μM and 50 μM; compared to known inhibitor ticlopidine
# T4 construct: tissue Apredica (testing lab); host or cells: microsomes (subcellular fractions)
# T4 sequence (P33261 whole entry): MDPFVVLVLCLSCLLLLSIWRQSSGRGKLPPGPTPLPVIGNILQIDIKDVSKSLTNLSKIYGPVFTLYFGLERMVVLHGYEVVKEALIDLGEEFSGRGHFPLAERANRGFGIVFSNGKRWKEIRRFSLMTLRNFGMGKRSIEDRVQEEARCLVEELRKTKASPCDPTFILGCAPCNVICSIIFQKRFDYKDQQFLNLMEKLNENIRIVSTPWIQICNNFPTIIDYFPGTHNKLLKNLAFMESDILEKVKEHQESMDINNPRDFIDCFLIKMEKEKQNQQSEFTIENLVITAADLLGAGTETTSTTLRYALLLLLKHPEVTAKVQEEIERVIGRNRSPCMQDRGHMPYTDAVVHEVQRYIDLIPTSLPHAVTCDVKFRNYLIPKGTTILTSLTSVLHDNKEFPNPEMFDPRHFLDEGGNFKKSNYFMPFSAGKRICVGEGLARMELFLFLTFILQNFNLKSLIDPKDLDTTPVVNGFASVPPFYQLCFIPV
# Method: as §1
# [1] = system: poly IC-induced impaired re-endothelialization; experiment: Vascular repair: re-endothelialization after carotid artery denudation; type: in vivo, Mice; details: 27 μg i.p. every 48 hours; 100 μg poly IC i.v.; Evan's blue staining
# Method: Mice were subjected to a 4 mm long electric denudation of the left common carotid artery. These C57B1/6J littermates were then treated with 100 μg of poly IC or vehicle (NaCl 0.9%) via i.v. injection every 48 hours for five days. Half of the mice in each group were also treated with 27 μg compound 4a or vehicle (DMSO) via i.p. injection every 48 hours. The mice were then sacrificed and aortic arch including both common carotid arteries excised. The remaining endothelial lesion was visualized using Evan's blue staining.
# TLR2/1 = target: T5, TLR2/1 (Mus musculus, UniProt Q9EPQ1+Q9QUN7); experiment: RAW264.7 cell nitric oxide TLR selectivity assay (Pam3CSK4); type: cell-based; details: 27 μM
# T5 construct: endogenous in cells; host or cells: RAW 264.7
# T5 sequence (Q9QUN7 25-784): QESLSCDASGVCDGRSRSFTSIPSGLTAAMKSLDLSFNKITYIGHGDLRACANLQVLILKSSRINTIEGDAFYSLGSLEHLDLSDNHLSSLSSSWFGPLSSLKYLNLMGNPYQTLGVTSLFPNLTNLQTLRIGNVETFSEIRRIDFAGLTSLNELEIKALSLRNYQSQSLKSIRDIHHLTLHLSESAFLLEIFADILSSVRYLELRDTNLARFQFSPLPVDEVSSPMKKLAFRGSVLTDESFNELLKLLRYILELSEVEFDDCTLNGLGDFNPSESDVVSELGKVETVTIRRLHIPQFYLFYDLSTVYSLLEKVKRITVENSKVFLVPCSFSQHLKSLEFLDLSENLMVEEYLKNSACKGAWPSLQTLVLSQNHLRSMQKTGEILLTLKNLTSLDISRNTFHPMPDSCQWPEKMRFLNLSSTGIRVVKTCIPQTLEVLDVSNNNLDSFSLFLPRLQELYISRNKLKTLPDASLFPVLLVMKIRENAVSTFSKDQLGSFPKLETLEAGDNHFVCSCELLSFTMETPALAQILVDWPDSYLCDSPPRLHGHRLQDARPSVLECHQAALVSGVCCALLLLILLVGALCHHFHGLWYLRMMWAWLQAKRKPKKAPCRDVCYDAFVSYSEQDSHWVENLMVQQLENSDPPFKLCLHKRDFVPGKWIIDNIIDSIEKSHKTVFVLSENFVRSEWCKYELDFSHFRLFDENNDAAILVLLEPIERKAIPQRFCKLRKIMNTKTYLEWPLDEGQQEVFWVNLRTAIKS
# T5 sequence (Q9EPQ1 25-795 limits assumed): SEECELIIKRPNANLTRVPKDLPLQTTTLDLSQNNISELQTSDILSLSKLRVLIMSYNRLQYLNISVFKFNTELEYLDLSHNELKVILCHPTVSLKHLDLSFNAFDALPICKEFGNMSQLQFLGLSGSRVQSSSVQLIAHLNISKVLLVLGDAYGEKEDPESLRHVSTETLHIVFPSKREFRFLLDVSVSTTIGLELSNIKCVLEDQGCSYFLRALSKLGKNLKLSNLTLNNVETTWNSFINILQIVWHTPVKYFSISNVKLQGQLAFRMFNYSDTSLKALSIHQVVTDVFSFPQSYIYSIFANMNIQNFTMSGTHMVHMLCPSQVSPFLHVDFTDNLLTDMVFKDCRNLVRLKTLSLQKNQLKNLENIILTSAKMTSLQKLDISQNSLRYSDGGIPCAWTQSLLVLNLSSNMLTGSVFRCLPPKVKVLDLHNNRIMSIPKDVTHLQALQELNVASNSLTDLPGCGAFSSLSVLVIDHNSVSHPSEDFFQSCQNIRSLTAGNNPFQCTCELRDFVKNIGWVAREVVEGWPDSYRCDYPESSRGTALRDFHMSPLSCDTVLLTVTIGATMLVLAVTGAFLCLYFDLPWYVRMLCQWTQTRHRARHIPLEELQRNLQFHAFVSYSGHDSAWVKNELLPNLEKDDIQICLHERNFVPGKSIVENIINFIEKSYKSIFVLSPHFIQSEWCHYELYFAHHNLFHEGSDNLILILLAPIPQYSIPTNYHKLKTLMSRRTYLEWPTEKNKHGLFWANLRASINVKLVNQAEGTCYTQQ
# representative kinases = experiment: Kinase profiling; type: biochemical; details: 10 μM
# TLR7 = target: T6, TLR7 (Mus musculus, UniProt P58681); experiment: RAW264.7 cell nitric oxide TLR selectivity assay (R848); type: cell-based; details: 27 μM
# T6 construct: endogenous in cells; host or cells: RAW 264.7
# T6 sequence (P58681 27-1050): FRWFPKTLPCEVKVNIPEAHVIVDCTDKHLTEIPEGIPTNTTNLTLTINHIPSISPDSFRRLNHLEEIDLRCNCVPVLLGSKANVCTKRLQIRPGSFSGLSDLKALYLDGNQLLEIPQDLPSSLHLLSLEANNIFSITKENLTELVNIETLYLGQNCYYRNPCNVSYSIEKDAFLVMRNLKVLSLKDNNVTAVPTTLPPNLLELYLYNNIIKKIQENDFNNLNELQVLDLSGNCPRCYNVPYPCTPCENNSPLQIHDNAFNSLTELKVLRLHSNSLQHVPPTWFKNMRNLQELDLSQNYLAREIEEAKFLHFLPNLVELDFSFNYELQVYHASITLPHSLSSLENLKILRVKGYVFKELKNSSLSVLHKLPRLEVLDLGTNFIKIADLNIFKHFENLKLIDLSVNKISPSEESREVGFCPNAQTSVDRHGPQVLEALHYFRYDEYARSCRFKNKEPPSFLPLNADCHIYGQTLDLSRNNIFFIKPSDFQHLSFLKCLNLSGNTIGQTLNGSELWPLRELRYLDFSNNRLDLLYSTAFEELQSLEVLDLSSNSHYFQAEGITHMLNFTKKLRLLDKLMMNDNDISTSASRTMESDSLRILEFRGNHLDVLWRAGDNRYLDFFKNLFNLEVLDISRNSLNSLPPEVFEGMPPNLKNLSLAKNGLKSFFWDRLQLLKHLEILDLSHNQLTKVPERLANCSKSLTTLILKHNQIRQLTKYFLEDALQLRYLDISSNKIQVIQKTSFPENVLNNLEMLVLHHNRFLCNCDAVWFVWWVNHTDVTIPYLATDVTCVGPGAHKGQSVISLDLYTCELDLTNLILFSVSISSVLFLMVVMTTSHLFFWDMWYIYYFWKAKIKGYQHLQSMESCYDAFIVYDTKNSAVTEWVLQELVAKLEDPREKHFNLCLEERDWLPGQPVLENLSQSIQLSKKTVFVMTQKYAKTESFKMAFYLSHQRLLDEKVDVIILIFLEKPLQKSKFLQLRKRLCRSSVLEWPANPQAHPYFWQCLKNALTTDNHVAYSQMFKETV
# T1 sequence (P08684 whole entry): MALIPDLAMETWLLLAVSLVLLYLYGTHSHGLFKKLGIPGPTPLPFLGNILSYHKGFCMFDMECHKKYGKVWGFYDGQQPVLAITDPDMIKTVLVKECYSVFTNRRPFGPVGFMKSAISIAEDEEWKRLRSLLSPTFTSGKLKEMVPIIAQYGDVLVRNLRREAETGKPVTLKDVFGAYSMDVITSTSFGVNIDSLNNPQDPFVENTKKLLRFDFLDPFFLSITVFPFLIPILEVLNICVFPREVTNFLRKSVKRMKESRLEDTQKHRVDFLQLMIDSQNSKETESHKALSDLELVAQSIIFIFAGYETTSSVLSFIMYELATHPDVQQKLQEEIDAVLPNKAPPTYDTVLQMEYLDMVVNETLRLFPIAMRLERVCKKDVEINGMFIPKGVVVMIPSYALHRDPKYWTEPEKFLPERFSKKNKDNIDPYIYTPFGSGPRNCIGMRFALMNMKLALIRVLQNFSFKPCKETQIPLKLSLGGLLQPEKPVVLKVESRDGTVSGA
smiles,measurement,setting,value
"O=C(N[C@H](Cc1ccccc1)C(=O)O)c1sc2cc(F)ccc2c1Cl [Compound 4a, (R)-2-(3-chloro-6-fluorobenzo[b]thiophene-2-carboxamido)-3-phenylpropanoic acid]",toxicity to Cyp3A4,Cyp3A4,low toxicity
same,toxicity to Cyp2D6,Cyp2D6,low toxicity
same,toxicity to Cyp1A2,Cyp1A2,low toxicity
same,toxicity to Cyp2C19,Cyp2C19,low toxicity
same,poly IC-induced impaired re-endothelialization,[1],significantly improves poly IC-induced impaired re-endothelialization
same,effect on TLR2/1 signaling,TLR2/1,without significantly affecting other TLRs
same,effect on kinase activities,representative kinases,did not significantly affect activities
same,effect on TLR7 signaling,TLR7,without significantly affecting other TLRs
